Measurements reported in BindingDB's records for doi:10.1111/cbdd.12609 (Tehran University of Medical Sciences, 2015).

How the values were obtained:
Acetylcholinesterase = Acetylcholinesterase (Electrophorus electricus, UniProt O42275); assay: AChE and BChE Inhibition Assay; conditions: pH 8; 25 °C
Protocol: (§1) To evaluate in vitro AChE activity, modified Ellman's method was performed using a 96-well plate reader (BioTek ELx808, Highland Park, IL, USA). Each well contained 50 µL potassium phosphate buffer (KH2PO4/K2HPO4, 0.1 M, pH 8), 25 µL sample dissolved in 50% methanol and 50% DMSO, and 25 µL enzyme (final concentration 0.22 U/mL in buffer). They were preincubated for 20 min at room temperature, and then, 125 µL DTNB (3 mM in buffer) was added. […] The IC50 values were determined graphically from inhibition curves (log inhibitor concentration versus percent of inhibition). A control experiment was performed under the same conditions without inhibitor and the blank contained buffer, DMSO, DTNB, and substrate. The described method was also used for BChE inhibition assa

[1] = biological target: Carboxylic ester hydrolase (Equus caballus, UniProt Q9N1N9); assay: AChE and BChE Inhibition Assay; conditions: pH 8; 25 °C
Sequence of Carboxylic ester hydrolase (Q9N1N9 whole entry): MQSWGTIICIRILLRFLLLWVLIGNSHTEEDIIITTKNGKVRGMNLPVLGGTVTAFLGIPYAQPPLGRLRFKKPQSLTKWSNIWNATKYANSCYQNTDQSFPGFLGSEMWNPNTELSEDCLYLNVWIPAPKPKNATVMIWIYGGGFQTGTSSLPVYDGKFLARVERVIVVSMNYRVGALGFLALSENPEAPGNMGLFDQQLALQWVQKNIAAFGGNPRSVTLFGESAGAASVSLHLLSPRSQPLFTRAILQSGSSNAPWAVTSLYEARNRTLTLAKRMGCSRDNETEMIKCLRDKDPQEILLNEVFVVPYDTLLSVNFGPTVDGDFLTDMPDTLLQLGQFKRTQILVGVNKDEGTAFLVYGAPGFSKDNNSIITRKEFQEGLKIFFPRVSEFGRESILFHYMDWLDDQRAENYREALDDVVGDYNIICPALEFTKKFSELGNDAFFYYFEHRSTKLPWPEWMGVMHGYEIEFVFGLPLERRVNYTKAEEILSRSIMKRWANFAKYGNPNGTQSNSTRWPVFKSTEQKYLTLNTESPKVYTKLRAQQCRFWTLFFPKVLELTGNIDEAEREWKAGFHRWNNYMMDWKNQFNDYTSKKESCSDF
Protocol: as §1

Sequence of Acetylcholinesterase (O42275 whole entry): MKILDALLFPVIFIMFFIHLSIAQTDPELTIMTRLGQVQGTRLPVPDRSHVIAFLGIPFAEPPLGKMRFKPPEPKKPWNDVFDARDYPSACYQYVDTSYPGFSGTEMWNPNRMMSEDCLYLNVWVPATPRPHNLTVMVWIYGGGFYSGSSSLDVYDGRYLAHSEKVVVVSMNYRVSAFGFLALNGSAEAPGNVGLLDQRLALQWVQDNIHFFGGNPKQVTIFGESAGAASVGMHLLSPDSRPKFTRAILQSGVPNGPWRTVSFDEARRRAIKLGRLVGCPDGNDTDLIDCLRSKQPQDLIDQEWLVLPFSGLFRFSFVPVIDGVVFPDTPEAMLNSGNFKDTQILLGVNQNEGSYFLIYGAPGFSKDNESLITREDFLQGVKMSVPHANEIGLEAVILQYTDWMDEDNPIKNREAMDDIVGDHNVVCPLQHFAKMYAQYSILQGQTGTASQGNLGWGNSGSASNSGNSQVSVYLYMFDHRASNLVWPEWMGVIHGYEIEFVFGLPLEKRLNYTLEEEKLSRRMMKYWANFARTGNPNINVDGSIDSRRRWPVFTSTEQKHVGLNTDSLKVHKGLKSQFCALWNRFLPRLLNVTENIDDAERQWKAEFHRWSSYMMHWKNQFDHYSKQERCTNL

Structure (SMILES)	IC50 (Acetylcholinesterase) [µM]	IC50 [1] [µM]
O=c1c2ccccc2n(Cc2cn(Cc3nc(-c4ccc(Cl)cc4)no3)nn2)c2ccc(Br)cc12 [2-Bromo-10-((1-((3-(4-chlorophenyl)-1,2,4-oxadiazol-5-yl)methyl)-1H-1,2,3-triazol-4-yl)methyl)acridin-9(10H)-one (10p)]	> 100	> 100
COc1ccc(-c2noc(Cn3cc(Cn4c5ccccc5c(=O)c5cc(Br)ccc54)nn3)n2)cc1 [2-Bromo-10-((1-((3-(4-methoxyphenyl)-1,2,4-oxadiazol-5-yl)methyl)-1H-1,2,3-triazol-4-yl)methyl)acridin-9(10H)-one (10o)]	> 100	> 100
O=c1c2ccccc2n(Cc2cn(Cc3nc(-c4ccc(Cl)cc4)no3)nn2)c2ccc(Cl)cc12 [2-Chloro-10-((1-((3-(4-chlorophenyl)-1,2,4-oxadiazol-5-yl)methyl)-1H-1,2,3-triazol-4-yl)methyl)acridin-9(10H)-one (10n)]	44.9	> 100
COc1ccc(-c2noc(Cn3cc(Cn4c5ccccc5c(=O)c5cc(Cl)ccc54)nn3)n2)cc1 [2-Chloro-10-((1-((3-(4-methoxyphenyl)-1,2,4-oxadiazol-5-yl)methyl)-1H-1,2,3-triazol-4-yl)methyl)acridin-9(10H)-one (10m)]	> 100	> 100
Cc1ccc(-c2noc(Cn3cc(Cn4c5ccccc5c(=O)c5cc(Cl)ccc54)nn3)n2)cc1 [2-Chloro-10-((1-((3-(p-tolyl)-1,2,4-oxadiazol-5-yl)methyl)-1H-1,2,3-triazol-4-yl)methyl)acridin-9(10H)-one (10l)]	> 100	> 100
COc1ccc(-c2noc(Cn3cc(Cn4c5ccccc5c(=O)c5cc(OC)ccc54)nn3)n2)cc1 [2-Methoxy-10-((1-((3-(4-methoxyphenyl)-1,2,4-oxadiazol-5-yl)methyl)-1H-1,2,3-triazol-4-yl)methyl)acridin-9(10H)-one (10j)]	> 100	> 100
COc1ccc2c(c1)c(=O)c1ccccc1n2Cc1cn(Cc2nc(-c3ccc(C)cc3)no2)nn1 [2-Methoxy-10-((1-((3-(p-tolyl)-1,2,4-oxadiazol-5-yl)methyl)-1H-1,2,3-triazol-4-yl)methyl)acridin-9(10H)-one (10i)]	> 100	> 100
COc1ccc(-c2noc(Cn3cc(Cn4c5ccccc5c(=O)c5cccc(Cl)c54)nn3)n2)cc1 [4-Chloro-10-((1-((3-(4-methoxyphenyl)-1,2,4-oxadiazol-5-yl)methyl)-1H-1,2,3-triazol-4-yl)methyl)acridin-9(10H)-one (10g)]	> 100	> 100
COc1ccc(-c2noc(Cn3cc(Cn4c5ccccc5c(=O)c5cccc(OC)c54)nn3)n2)cc1 [4-Methoxy-10-((1-((3-(4-methoxyphenyl)-1,2,4-oxadiazol-5-yl)methyl)-1H-1,2,3-triazol-4-yl)methyl)acridin-9(10H)-one (10f)]	> 100	> 100
COc1cccc2c(=O)c3ccccc3n(Cc3cn(Cc4nc(-c5ccc(C)cc5)no4)nn3)c12 [4-Methoxy-10-((1-((3-(p-tolyl)-1,2,4-oxadiazol-5-yl)methyl)-1H-1,2,3-triazol-4-yl)methyl)acridin-9(10H)-one (10e)]	> 100	> 100
O=c1c2ccccc2n(Cc2cn(Cc3nc(-c4ccc(Br)cc4)no3)nn2)c2ccccc12 [10-((1-((3-(4-Bromophenyl)-1,2,4-oxadiazol-5-yl)methyl)-1H-1,2,3-triazol-4-yl)methyl)acridin-9(10H)-one (10d)]	67.4	> 100
COc1ccc2c(c1)c(=O)c1ccccc1n2Cc1cn(Cc2nc(-c3ccc(Cl)cc3)no2)nn1 [10-((1-((3-(4-Chlorophenyl)-1,2,4-oxadiazol-5-yl)methyl)-1H-1,2,3-triazol-4-yl)methyl)-2-methoxyacridin-9(10H)-one (10k)]	77.8	> 100
Cc1ccc2c(c1)c(=O)c1ccccc1n2Cc1cn(Cc2nc(-c3ccc(Cl)cc3)no2)nn1 [10-((1-((3-(4-Chlorophenyl)-1,2,4-oxadiazol-5-yl)methyl)-1H-1,2,3-triazol-4-yl)methyl)-2-methylacridin-9(10H)-one (10h)]	> 100	> 100
O=c1c2ccccc2n(Cc2cn(Cc3nc(-c4ccc(Cl)cc4)no3)nn2)c2ccccc12 [10-((1-((3-(4-Chlorophenyl)-1,2,4-oxadiazol-5-yl)methyl)-1H-1,2,3-triazol-4-yl)methyl)acridin-9(10H)-one (10c)]	24.7	88.9
COc1ccc(-c2noc(Cn3cc(Cn4c5ccccc5c(=O)c5ccccc54)nn3)n2)cc1 [10-((1-((3-(4-Methoxyphenyl)-1,2,4-oxadiazol-5-yl)methyl)-1H-1,2,3-triazol-4-yl)methyl)acridin-9(10H)-one (10b)]	11.5	> 100
Cc1ccc(-c2noc(Cn3cc(Cn4c5ccccc5c(=O)c5ccccc54)nn3)n2)cc1 [10-((1-((3-(p-Tolyl)-1,2,4-oxadiazol-5-yl)methyl)-1H-1,2,3-triazol-4-yl)methyl)acridin-9(10H)-one (10a)]	49	> 100
